Measurements from ChEMBL document CHEMBL5584229, “Application and challenges of nitrogen heterocycles in PROTAC linker” (Eur J Med Chem, 2024).

Columns and labels:
[1] = AUC (0 to t) in ICR mouse at 2 mg/kg, iv; format: ADME, organism-based; conditions: in vivo
[2] = biological target: Protein cereblon/Androgen receptor (Homo sapiens, UniProt P10275+Q96SW2); experiment: PROTAC activity at AR/CRBN in human A549 cells assessed as induction of androgen receptor degradation measured after 1 hr by Western blot analysis; format: cell-based
[3] = biological target: Protein cereblon/Cyclin-dependent kinase 9 (Homo sapiens) (UniProt P50750+Q96SW2); experiment: Protac activity at CRBN/CDK9 in human HeLa cells assessed as […] at 1 uM measured after 6 hrs by Western blot analysis; format: cell-based
[4] = tested on: von Hippel-Lindau disease tumor suppressor/Epidermal growth factor receptor (Homo sapiens), P00533+P40337 [UNDEFINED MUTATION]; experiment: PROTAC activity at VHL/EGFR del19 mutant in human HCC827 cells assessed as maximal degradation incubated for 24 hrs by immunoblot analysis relative to control; format: cell-based
[5] = biological target: Von Hippel-Lindau disease tumor suppressor/Elongin B/Elongin C (Homo sapiens, UniProt P40337); experiment: Inhibition of 6xHis-tagged VHL (1 to 213 residues)/Elongin B/Elogin C (unknown origin) expressed in Escherichia coli BL21 cells by fluorescence polarization assay
[6] = biological target: T1, Protein cereblon/ALK tyrosine kinase receptor (Homo sapiens, UniProt Q9UM73+Q96SW2); experiment: PROTAC activity at CRBN/ALK in human NCI-H3122 cells assessed as induction of ALK degradation incubated for 24 hrs by Western blot analysis; format: cell-based
Target sequence in this assay (Q9UM73 whole entry): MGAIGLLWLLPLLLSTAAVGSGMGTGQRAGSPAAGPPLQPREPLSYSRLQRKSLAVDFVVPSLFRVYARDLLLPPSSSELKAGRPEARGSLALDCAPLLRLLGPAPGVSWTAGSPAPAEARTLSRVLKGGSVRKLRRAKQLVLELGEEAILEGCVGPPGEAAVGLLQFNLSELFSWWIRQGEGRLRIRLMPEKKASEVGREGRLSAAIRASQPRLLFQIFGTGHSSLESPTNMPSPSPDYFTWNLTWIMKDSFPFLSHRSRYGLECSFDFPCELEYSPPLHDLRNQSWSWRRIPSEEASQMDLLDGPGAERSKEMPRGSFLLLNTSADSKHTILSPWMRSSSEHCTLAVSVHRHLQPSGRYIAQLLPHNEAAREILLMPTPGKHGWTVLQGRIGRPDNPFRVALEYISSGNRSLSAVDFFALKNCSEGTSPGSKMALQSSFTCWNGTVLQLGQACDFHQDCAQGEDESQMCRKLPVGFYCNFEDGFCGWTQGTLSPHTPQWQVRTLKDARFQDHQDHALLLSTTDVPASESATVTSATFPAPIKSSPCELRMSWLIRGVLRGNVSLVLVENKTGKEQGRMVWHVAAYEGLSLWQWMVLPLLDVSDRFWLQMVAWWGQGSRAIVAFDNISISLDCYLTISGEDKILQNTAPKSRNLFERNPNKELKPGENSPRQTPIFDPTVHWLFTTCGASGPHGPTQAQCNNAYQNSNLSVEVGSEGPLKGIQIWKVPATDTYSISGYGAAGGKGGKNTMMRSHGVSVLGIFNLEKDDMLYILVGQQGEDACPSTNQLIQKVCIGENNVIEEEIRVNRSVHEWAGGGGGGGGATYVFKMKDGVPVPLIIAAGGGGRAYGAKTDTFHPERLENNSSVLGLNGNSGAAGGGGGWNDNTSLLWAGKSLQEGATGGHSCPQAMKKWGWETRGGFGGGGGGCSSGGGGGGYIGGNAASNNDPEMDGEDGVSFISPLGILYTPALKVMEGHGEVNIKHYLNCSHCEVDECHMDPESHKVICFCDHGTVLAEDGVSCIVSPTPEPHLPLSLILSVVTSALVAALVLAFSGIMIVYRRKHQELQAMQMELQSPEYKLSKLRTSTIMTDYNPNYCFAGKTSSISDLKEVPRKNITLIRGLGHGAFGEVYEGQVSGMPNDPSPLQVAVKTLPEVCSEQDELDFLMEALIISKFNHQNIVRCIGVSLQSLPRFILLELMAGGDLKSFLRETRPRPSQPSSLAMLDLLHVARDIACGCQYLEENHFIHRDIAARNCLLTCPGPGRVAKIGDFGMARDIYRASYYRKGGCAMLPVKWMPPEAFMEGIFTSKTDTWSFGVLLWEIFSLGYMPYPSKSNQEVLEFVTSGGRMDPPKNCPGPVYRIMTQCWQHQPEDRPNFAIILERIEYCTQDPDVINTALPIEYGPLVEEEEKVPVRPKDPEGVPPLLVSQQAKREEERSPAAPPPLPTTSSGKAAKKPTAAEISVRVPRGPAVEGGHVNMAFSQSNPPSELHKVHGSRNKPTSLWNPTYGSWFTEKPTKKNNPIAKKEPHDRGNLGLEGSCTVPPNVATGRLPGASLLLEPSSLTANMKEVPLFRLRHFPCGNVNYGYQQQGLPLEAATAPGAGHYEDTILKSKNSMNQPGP
Target sequence in this assay (Q96SW2 whole entry): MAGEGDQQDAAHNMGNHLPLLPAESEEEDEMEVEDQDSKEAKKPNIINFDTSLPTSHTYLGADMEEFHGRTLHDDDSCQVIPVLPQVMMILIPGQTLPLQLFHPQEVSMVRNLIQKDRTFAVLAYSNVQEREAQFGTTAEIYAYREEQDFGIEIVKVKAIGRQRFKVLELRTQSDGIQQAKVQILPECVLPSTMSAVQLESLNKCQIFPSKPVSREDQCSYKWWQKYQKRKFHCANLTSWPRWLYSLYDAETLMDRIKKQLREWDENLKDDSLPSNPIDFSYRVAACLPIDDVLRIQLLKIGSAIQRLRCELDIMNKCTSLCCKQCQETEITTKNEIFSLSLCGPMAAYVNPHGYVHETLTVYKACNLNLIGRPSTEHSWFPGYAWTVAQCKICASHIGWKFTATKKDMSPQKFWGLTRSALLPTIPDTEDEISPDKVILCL

[7] = biological target: T2, von Hippel-Lindau disease tumor suppressor/Mitogen-activated protein kinase 14 (Homo sapiens, UniProt Q16539+P40337); experiment: PROTAC activity at VHL/N-terminal His-tagged human p38alpha in MDA-MB-231 cells assessed as p38alpha degradation; format: cell-based
[8] = biological target: T1, Protein cereblon/ALK tyrosine kinase receptor; experiment: PROTAC activity at CRBN/ALK in human NCI-H3122 cells assessed as induction of ALK degradation by measuring maximal degradation at […] incubated for 24 hrs by Western blot analysis; format: cell-based
[9] = biological target: E3 ubiquitin-protein ligase Mdm2/Histone deacetylase 1 (Homo sapiens) (UniProt Q00987+Q13547); experiment: PROTAC activity at MDM2/HDAC1 in human HCT-116 cells assessed as induction of HDAC1 degradation at 10 uM by Western blot analysis relative to control; format: cell-based
A549 = experiment: Cytotoxicity against human A549 cells assessed as reduction in cell growth incubated for 5 days by MTT assay; format: functional, cell-based; conditions: A549, 120 h
[10] = biological target: T2, von Hippel-Lindau disease tumor suppressor/Mitogen-activated protein kinase 14; experiment: PROTAC activity at VHL/N-terminal His-tagged human p38alpha in T47D cells assessed as p38alpha degradation; format: cell-based
HeLa = experiment: Antiproliferative activity against human HeLa cells assessed as reduction in cell viability incubated for 24 hrs by MTT assay; format: functional, cell-based
[11] = biological target: T3, Protein cereblon/Receptor-type tyrosine-protein kinase FLT3 (Homo sapiens, UniProt P36888+Q96SW2); experiment: PROTAC activity at CRBN/FLT3 in human MV4-11 cells harboring FLT3-ITD mutation assessed as induction of FLT3 degradation incubated for 24 hrs by immunoblotting analysis; format: cell-based
[12] = biological target: T3, Protein cereblon/Receptor-type tyrosine-protein kinase FLT3; experiment: PROTAC activity at CRBN/FLT3-ITD mutant in human MV4-11 cells assessed as protein degradation by Western blot analysis; format: cell-based

T2 sequence (Q16539 whole entry): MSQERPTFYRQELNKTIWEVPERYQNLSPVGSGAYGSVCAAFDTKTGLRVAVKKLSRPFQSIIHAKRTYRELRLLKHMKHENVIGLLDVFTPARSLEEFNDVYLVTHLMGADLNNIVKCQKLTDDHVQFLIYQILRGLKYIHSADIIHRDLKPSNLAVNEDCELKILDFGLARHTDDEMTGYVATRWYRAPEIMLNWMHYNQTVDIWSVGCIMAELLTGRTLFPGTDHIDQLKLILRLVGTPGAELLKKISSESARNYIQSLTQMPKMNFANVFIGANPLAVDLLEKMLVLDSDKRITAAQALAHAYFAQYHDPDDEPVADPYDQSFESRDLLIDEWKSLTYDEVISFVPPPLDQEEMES
T2 sequence (P40337 whole entry): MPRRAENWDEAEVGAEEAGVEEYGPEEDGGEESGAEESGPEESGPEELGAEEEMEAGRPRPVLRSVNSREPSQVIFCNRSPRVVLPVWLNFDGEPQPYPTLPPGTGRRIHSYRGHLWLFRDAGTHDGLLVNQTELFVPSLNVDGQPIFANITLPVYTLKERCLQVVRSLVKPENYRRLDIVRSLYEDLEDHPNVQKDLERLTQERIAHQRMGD
T3 sequence (P36888 whole entry, looked up, change not shown): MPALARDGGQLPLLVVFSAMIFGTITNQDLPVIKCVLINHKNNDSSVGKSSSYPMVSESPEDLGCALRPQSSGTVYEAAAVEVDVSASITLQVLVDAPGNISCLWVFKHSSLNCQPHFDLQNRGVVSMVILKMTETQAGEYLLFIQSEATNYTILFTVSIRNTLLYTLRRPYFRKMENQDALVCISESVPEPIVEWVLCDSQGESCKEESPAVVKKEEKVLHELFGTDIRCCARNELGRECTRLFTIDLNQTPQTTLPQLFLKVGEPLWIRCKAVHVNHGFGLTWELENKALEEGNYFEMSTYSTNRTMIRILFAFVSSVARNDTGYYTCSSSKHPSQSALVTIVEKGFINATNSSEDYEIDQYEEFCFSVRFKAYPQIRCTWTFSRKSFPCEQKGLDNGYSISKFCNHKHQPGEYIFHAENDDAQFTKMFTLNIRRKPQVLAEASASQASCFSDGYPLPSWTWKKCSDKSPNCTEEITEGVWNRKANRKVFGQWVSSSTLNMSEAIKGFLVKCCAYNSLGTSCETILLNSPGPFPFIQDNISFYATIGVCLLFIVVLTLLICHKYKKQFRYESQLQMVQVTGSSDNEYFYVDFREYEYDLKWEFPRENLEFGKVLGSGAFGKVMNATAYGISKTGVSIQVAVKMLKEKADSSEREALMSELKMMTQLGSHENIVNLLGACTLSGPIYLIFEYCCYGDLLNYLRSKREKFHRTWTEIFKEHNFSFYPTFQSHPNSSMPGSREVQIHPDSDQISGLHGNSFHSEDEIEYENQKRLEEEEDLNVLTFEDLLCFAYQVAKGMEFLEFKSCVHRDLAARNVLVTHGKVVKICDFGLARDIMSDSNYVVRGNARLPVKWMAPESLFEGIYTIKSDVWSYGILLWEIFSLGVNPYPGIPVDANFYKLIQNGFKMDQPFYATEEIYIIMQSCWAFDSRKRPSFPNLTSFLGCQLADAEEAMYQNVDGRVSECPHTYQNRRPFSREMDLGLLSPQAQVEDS
T3 sequence (Q96SW2 whole entry, looked up, change not shown): as the sequence (Q96SW2 whole entry) above
von Hippel-Lindau disease tumor suppressor/Epidermal growth factor receptor (Homo sapiens), P00533+P40337 [UNDEFINED MUTATION], sequence (P00533 whole entry, looked up, stated change not applied, the tested form may be a part): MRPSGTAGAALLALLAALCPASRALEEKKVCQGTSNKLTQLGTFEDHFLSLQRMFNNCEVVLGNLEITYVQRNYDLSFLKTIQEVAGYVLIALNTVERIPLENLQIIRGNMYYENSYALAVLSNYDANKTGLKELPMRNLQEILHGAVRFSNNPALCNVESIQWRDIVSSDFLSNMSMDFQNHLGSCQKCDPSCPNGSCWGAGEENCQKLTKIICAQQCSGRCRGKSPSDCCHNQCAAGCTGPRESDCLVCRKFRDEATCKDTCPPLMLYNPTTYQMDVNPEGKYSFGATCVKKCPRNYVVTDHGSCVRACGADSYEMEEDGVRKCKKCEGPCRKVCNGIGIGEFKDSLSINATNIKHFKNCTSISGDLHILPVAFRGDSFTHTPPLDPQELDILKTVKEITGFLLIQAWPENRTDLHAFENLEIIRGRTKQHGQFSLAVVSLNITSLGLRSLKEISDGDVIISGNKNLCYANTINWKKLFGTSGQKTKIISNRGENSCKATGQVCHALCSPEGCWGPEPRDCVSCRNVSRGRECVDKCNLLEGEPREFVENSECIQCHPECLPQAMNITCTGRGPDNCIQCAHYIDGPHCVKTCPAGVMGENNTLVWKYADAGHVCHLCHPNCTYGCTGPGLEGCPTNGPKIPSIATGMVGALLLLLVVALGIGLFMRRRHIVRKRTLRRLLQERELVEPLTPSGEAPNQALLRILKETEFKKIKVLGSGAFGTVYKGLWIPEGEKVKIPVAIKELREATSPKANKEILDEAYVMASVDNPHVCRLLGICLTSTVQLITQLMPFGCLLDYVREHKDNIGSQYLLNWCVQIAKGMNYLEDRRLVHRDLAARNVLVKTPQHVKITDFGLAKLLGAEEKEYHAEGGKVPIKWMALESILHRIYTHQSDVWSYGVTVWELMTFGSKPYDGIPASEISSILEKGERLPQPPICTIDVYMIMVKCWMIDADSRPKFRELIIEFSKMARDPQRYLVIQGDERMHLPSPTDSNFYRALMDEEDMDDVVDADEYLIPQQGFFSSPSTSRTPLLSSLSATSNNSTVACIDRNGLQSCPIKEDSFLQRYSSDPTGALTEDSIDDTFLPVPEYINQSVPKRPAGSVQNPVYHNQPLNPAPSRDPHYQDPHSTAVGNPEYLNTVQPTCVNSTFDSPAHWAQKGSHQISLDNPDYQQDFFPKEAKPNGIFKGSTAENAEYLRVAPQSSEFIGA
von Hippel-Lindau disease tumor suppressor/Epidermal growth factor receptor (Homo sapiens), P00533+P40337 [UNDEFINED MUTATION], sequence (P40337 whole entry, looked up, stated change not applied, the tested form may be a part): as the sequence (P40337 whole entry) above
Von Hippel-Lindau disease tumor suppressor/Elongin B/Elongin C, sequence (P40337 whole entry, looked up, the tested form may be a part): as the sequence (P40337 whole entry) above

Work on `NC(=O)c1cccc2cn(-c3ccc(C4CCCN(CCC5CCN(CCC6CCN(c7ccc8c(c7)C(=O)N(C7CCC(=O)NC7=O)C8=O)CC6)CC5)C4)cc3)nc12` (configuration not stated) yielded an AUC(0-t) [1] of 24500 ng·h/mL.
For `CC1(C)C(=O)N(c2ccc(C#N)c(C(F)(F)F)c2)C(=S)N1c1ccc(-c2ccc(O[C@@H]3CCN(C(=O)C4CCN(c5ccc6c(c5)C(=O)N(C5CCC(=O)NC5=O)C6=O)CC4)C3)cc2)cc1` (some centres not stated), the DC50 [2] was 75 nM.
`O=C1CCC(N2C(=O)c3cccc(NC(=O)CCCCCCCn4cc(COc5c(O)cc(O)c6c(=O)cc(-c7ccccc7)oc56)nn4)c3C2=O)C(=O)N1` (configuration not stated) showed an Emax [3] of 61.2%.
`Cc1ncsc1-c1ccc(CNC(=O)[C@@H]2C[C@@H](O)CN2C(=O)[C@@H](NC(=O)CCCCCCCCCCn2cc(COc3cc4ncnc(Nc5ccc(F)c(Cl)c5)c4cc3NC(=O)/C=C/CN3CCCCC3)nn2)C(C)(C)C)cc1` showed an Emax [4] of 91%.
For `CCCS(=O)(=O)Nc1ccc(F)c(C(=O)c2c[nH]c3ncc(-c4ccc(N5CCN(CC(=O)N[C@H](C(=O)N6C[C@H](O)C[C@H]6C(=O)NCc6ccc(-c7scnc7C)cc6)C(C)(C)C)CC5)cc4)cc23)c1F`, the IC50 [5] was 6.8 nM.
`N#Cc1cccc(-c2ccc(=O)n(Cc3cccc(-c4ncc(OCC5CCN(CC(=O)N6CCN(c7ccc8c(c7)C(=O)N(C7CCC(=O)NC7=O)C8=O)CC6)CC5)cn4)c3)n2)c1` (configuration not stated) gave a DC50 [6] of 0.35 nM.
Compound `Cc1ccc(C(=O)NCCCc2cn(CCCC(=O)NCCCCCC(=O)N[C@H](C(=O)N3C[C@H](O)C[C@H]3C(=O)N[C@@H](C)c3ccc(-c4scnc4C)cc3)C(C)(C)C)nn2)cc1-n1c(C)cc(OCc2ccc(F)cc2F)c(Br)c1=O` has a DC50 [7] of 11.6 nM.
For `N#Cc1cccc(-c2ccc(=O)n(Cc3cccc(-c4ncc(OCC5CCN(CC(=O)NCCOCNc6ccc7c(c6)C(=O)N(C6CCC(=O)NC6=O)C7=O)CC5)cn4)c3)n2)c1` (configuration not stated), the DC50 [6] was 0.77 nM and the Emax [8] was greater than 99%.
Compound `COC(C)(C)CCC[C@@](C)(O)[C@H]1CC[C@]2(C)[C@@H]1[C@H](O)C[C@@H]1[C@@]3(C)CC[C@H](OCC(=O)N4CCC(CN5CCN(c6ccc7c(c6)CN(C6CCC(=O)NC6=O)C7=O)CC5)CC4)C(C)(C)[C@@H]3CC[C@]12C` (some centres not stated) has an Emax [9] of 65.4% and an IC50 (A549) of 2160 nM.
With `C=C1c2cccc(NCCCCCCNC(=O)CCCn3cc(CCCCNC(=O)c4ccc(C)c(-n5c(C)cc(OCc6ccc(F)cc6F)c(Br)c5=O)c4)nn3)c2C(=O)N1C1CCC(=O)NC1=O` (configuration not stated) the DC50 [10] was 2.9 nM and the DC50 [7] was 18.4 nM.
Compound `CC1(NCc2cn(CCOCCOCCOCCOCCNc3cccc4c3C(=O)N(C3CCC(=O)NC3=O)C4=O)nn2)CCN(c2cnc(-c3cccc(Cl)c3Cl)c(N)n2)CC1` (configuration not stated) has an IC50 (HeLa) of 4300 nM.
For `N#Cc1cccc(-c2ccc(=O)n(Cc3cccc(-c4ncc(OCC5CCN(CC(=O)N6CCN(CCNc7ccc8c(c7)C(=O)N(C7CCC(=O)NC7=O)C8=O)CC6)CC5)cn4)c3)n2)c1` (configuration not stated), the DC50 [6] was 0.6 nM.
In the case of `CC(C)(C)c1cc(NC(=O)Nc2ccc(-c3cn(CCCCc4cn(CCCCC(=O)Nc5cccc6c5CN(C5CCC(=O)NC5=O)C6=O)nn4)c4ncnc(N)c34)cc2)no1` (configuration not stated), the DC50 [11] is reported as 7850 nM and the DC50 [12] is reported as 76.7 nM.
